Data on 25 compounds can be found in patent US20240398828A1, “HETERO-ATOM CONTAINING COMPOUNDS AND USES THEREOF” (Kumquat Biosciences Inc., priority 2021, published 2024).

Molecules are shown by their SMILES.

Experiment [1] addresses T1, PTPN2 (i.e., TC-PTP) (Homo sapiens, UniProt P17706).
T1 sequence (P17706 1-415): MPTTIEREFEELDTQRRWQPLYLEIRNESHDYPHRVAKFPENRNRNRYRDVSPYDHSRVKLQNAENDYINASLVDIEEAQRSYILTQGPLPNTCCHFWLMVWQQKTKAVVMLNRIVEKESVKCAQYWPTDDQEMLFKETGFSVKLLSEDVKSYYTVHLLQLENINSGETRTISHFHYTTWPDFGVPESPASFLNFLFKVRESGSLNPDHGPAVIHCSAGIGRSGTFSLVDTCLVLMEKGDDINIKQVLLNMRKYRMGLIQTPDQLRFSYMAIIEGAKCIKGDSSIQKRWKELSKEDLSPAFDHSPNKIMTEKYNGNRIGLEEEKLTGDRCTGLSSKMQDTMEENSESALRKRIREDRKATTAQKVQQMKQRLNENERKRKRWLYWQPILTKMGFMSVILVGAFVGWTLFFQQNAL
Briefly: Phosphatase activity assay (DiFMUP substrate), PTPN2. Type of experiment: biochemical. The conditions noted are these: compounds binned ≤1 uM or >1 uM. The gist of the method: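 First, serially diluted inhibitor is mixed about 2 minutes with enzyme in pH 7.5 HEPES/NaCl/EDTA/DTT/Tween-20 buffer. Next, DiFMUP is added at the enzyme's Km, approximately 45 μM for PTPN2. Finally, DiFMU appearance is read continuously at room temperature and rates are fitted for IC50.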

The target in experiment [2] is T2, PTPN1 (i.e., PTP1B) (Homo sapiens, UniProt P18031).
T2 sequence (P18031 1-435): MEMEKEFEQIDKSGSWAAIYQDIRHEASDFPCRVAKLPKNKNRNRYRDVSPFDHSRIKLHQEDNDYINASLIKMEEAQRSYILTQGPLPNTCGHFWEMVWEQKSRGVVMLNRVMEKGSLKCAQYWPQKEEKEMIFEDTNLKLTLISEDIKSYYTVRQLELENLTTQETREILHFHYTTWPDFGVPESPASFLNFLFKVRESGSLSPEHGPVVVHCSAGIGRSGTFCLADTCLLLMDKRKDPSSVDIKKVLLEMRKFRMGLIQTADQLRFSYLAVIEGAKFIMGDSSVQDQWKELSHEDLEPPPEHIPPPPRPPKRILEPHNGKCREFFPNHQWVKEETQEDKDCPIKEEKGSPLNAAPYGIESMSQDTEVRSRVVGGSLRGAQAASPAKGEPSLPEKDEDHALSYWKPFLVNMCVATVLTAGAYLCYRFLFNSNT
Briefly: Phosphatase activity assay (DiFMUP substrate), PTP1B. It counts as biochemical. The conditions noted are these: compounds binned ≤1 uM or >1 uM. In short, it runs like this:
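Enzyme (e.g. PTPN2 0.025 ng/ul) mixed about 2 min with compound at 10 serial concentrations in 50 mM HEPES pH 7.5, 150 mM NaCl, 0.5 mM EDTA, 1 mM DTT, 0.001% Tween-20 at room temperature. DiFMUP added at each enzyme's Km (about 45 μM for PTPN2). DiFMU fluorescence (ex 360/em 450 nm) followed 15-30 min; IC50 from 4-parameter fit of rates.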

One may read the IC50 as the point on the concentration scale where inhibition reaches its midpoint. For the compound `O=C1CN(c2c(O)ccc(-c3cc(C4CC4)no3)c2F)S(=O)(=O)N1` [Compound 256, 5-(3-(3-cyclopropylisoxazol-5-yl)-2-fluoro-6-hydroxyphenyl)-1,2,5-thiadiazolidin-3-one 1,1-dioxide], the 50% inhibitory concentration (IC50) in experiment [1] and in experiment [2] was at most 1 µM in each case.
As for `O=C1CN(c2c(O)ccc(-c3cc(N4CCOCC4)n[nH]3)c2F)S(=O)(=O)N1` [Compound 286, 5-(2-fluoro-6-hydroxy-3-(3-morpholino-1H-pyrazol-5-yl)phenyl)-1,2,5-thiadiazolidin-3-one 1,1-dioxide], the IC50 in experiment [1] and in experiment [2] was at most 1 µM each time.
On to `O=C1CN(c2c(O)ccc(-c3cc(C(F)F)n[nH]3)c2F)S(=O)(=O)N1` [Compound 337, 5-(3-(3-(difluoromethyl)-1H-pyrazol-5-yl)-2-fluoro-6-hydroxyphenyl)-1,2,5-thiadiazolidin-3-one 1,1-dioxide], for which the 50% inhibitory concentration (IC50) in experiment [1] and in experiment [2] was at most 1 µM throughout.
Take `COC(=O)n1nc(-c2ccc(O)c(N3CC(=O)NS3(=O)=O)c2F)cc1C1CC1` [Compound 536, methyl 5-cyclopropyl-3-(3-(1,1-dioxido-4-oxo-1,2,5-thiadiazolidin-2-yl)-2-fluoro-4-hydroxyphenyl)-1H-pyrazole-1-carboxylate]: the concentration for half-maximal inhibition (IC50) in experiment [1] and in experiment [2] was at most 1 µM each time.
As to `O=C1CN(c2c(O)ccc(-c3cc(N4CC5(CCC5)C4)n[nH]3)c2F)S(=O)(=O)N1` [Compound 323, 5-(3-(3-(2-azaspiro[3.3]heptan-2-yl)-1H-pyrazol-5-yl)-2-fluoro-6-hydroxyphenyl)-1,2,5-thiadiazolidin-3-one 1,1-dioxide], the IC50 in experiment [1] and in experiment [2] was at most 1 µM each time.
Take `NC(=O)Cc1cc(-c2ccc(O)c(N3CC(=O)NS3(=O)=O)c2F)[nH]n1` [Compound 520, 2-(5-(3-(1,1-dioxido-4-oxo-1,2,5-thiadiazolidin-2-yl)-2-fluoro-4-hydroxyphenyl)-1H-pyrazol-3-yl)acetamide]: the half-inhibitory concentration (IC50) in experiment [1] and in experiment [2] was at most 1 µM in each case.
Consider `C[C@@H]1C=C(c2ccc(O)c(N3CC(=O)NS3(=O)=O)c2F)CN1` [Compound 483, (R)-5-(2-fluoro-6-hydroxy-3-(5-methyl-2,5-dihydro-1H-pyrrol-3-yl)phenyl)-1,2,5-thiadiazolidin-3-one 1,1-dioxide], for which the half-inhibitory concentration (IC50) in experiment [1] and in experiment [2] was at most 1 µM throughout.
Turning to `CC(C)CCn1cc(-c2cc(O)cc(N3CC(=O)NS3(=O)=O)c2)cn1` [Compound 184, 5-(3-hydroxy-5-(1-isopentyl-1H-pyrazol-4-yl)phenyl)-1,2,5-thiadiazolidin-3-one 1,1-dioxide], the half-inhibitory concentration (IC50) in experiment [1] and in experiment [2] was over 1 µM each time.
In the case of `CC#Cc1cc(-c2ccc(O)c(N3CC(=O)NS3(=O)=O)c2F)[nH]n1` [Compound 354, 5-(2-fluoro-6-hydroxy-3-(3-(prop-1-yn-1-yl)-1H-pyrazol-5-yl)phenyl)-1,2,5-thiadiazolidin-3-one 1,1-dioxide], the concentration for half-maximal inhibition (IC50) in experiment [1] and in experiment [2] was at most 1 µM throughout.
For `O=C1CN(c2c(O)ccc(C3=CC(CO)NC3)c2F)S(=O)(=O)N1` (centres unmarked) [Compound 398, 5-(2-fluoro-6-hydroxy-3-(5-(hydroxymethyl)-2,5-dihydro-1H-pyrrol-3-yl)phenyl)-1,2,5-thiadiazolidin-3-one 1,1-dioxide], the IC50 in experiment [1] and in experiment [2] was at most 1 µM each time.
In the case of `O=C1CN(c2c(O)ccc(-c3cc(CCCC(F)(F)F)n[nH]3)c2F)S(=O)(=O)N1` [Compound 255, 5-(2-fluoro-6-hydroxy-3-(3-(4,4,4-trifluorobutyl)-1H-pyrazol-5-yl)phenyl)-1,2,5-thiadiazolidin-3-one 1,1-dioxide], the IC50 in experiment [1] and in experiment [2] was at most 1 µM in each case.
As to `CC(C)CCn1ccc(-c2ccc(O)c(N3CC(=O)NS3(=O)=O)c2F)n1` [Compound 196, 5-(2-fluoro-6-hydroxy-3-(1-isopentyl-1H-pyrazol-3-yl)phenyl)-1,2,5-thiadiazolidin-3-one 1,1-dioxide], the IC50 in experiment [1] and in experiment [2] was at most 1 µM in each case.
As to `CN1CCC(Nc2cccc(-c3ccc(O)c(N4CC(=O)NS4(=O)=O)c3F)c2)CC1` [Compound 225, 5-(2-fluoro-4-hydroxy-3′-((1-methylpiperidin-4-yl)amino)-[1,1′-biphenyl]-3-yl)-1,2,5-thiadiazolidin-3-one 1,1-dioxide], the IC50 in experiment [1] and in experiment [2] was at most 1 µM throughout.
For `O=C1CN(c2c(O)ccc(-c3cn(C4CC4)cn3)c2F)S(=O)(=O)N1` [Compound 176, 5-(3-(1-cyclopropyl-1H-imidazol-4-yl)-2-fluoro-6-hydroxyphenyl)-1,2,5-thiadiazolidin-3-one 1,1-dioxide], the IC50 in experiment [1] and in experiment [2] was at most 1 µM each time.
Consider `CCOc1ccc(-c2ccc(O)c(N3CC(=O)NS3(=O)=O)c2F)cn1` [Compound 226, 5-(3-(6-ethoxypyridin-3-yl)-2-fluoro-6-hydroxyphenyl)-1,2,5-thiadiazolidin-3-one 1,1-dioxide], for which the IC50 in experiment [1] and in experiment [2] was at most 1 µM in each case.
For the compound `C[C@H]1C=C(c2ccc(O)c(N3CC(=O)NS3(=O)=O)c2F)CN1` [Compound 504, (S)-5-(2-fluoro-6-hydroxy-3-(5-methyl-2,5-dihydro-1H-pyrrol-3-yl)phenyl)-1,2,5-thiadiazolidin-3-one 1,1-dioxide], the IC50 in experiment [1] and in experiment [2] was at most 1 µM throughout.
Regarding `O=C1CN(c2c(O)ccc(-c3[nH]nc(C4CC4)c3F)c2F)S(=O)(=O)N1` [Compound 314, 5-(3-(3-cyclopropyl-4-fluoro-1H-pyrazol-5-yl)-2-fluoro-6-hydroxyphenyl)-1,2,5-thiadiazolidin-3-one 1,1-dioxide], the IC50 in experiment [1] and in experiment [2] was at most 1 µM throughout.
For the compound `CC(=O)N(C)C1CCC=C(c2ccc(O)c(N3CC(=O)NS3(=O)=O)c2F)C1` (centres unmarked) [Compound 232, N-(3′-(1,1-dioxido-4-oxo-1,2,5-thiadiazolidin-2-yl)-2′-fluoro-4′-hydroxy-2,3,4,5-tetrahydro-[1,1′-biphenyl]-3-yl)-N-methylacetamide], the IC50 in experiment [1] and in experiment [2] was at most 1 µM throughout.
For the compound `O=C1CN(c2c(O)ccc(-c3cnn(C(=O)NC4CC4)c3)c2F)S(=O)(=O)N1` [Compound 514, N-cyclopropyl-4-(3-(1,1-dioxido-4-oxo-1,2,5-thiadiazolidin-2-yl)-2-fluoro-4-hydroxyphenyl)-1H-pyrazole-1-carboxamide], the IC50 in experiment [1] and in experiment [2] was at most 1 µM each time.
Consider `CC(C)CCn1cc(-c2ccc(O)c(N3CC(=O)NS3(=O)=O)c2)cn1` [Compound 132, 5-(2-hydroxy-5-(1-isopentyl-1H-pyrazol-4-yl)phenyl)-1,2,5-thiadiazolidin-3-one 1,1-dioxide], for which the IC50 in experiment [1] and in experiment [2] was at most 1 µM in each case.
`COc1cccc(Cn2cc(-c3ccc(O)c(N4CC(=O)NS4(=O)=O)c3F)cn2)c1` [Compound 127, 5-(2-fluoro-6-hydroxy-3-(1-(3-methoxybenzyl)-1H-pyrazol-4-yl)phenyl)-1,2,5-thiadiazolidin-3-one 1,1-dioxide]: the IC50 in experiment [1] and in experiment [2] was at most 1 µM throughout.
`Cc1cc(O)c(N2CC(=O)NS2(=O)=O)cc1-c1cnn(C)c1` [Compound 358, 5-(2-hydroxy-4-methyl-5-(1-methyl-1H-pyrazol-4-yl)phenyl)-1,2,5-thiadiazolidin-3-one 1,1-dioxide]: the IC50 in experiment [1] and in experiment [2] was over 1 µM each time.
For `O=C1CN(c2c(O)ccc(-c3cc(C4CC4)n(CC4CCCN4)n3)c2F)S(=O)(=O)N1` (centres unmarked) [Compound 382, 5-(3-(5-cyclopropyl-1-(pyrrolidin-2-ylmethyl)-1H-pyrazol-3-yl)-2-fluoro-6-hydroxyphenyl)-1,2,5-thiadiazolidin-3-one 1,1-dioxide], the 50% inhibitory concentration (IC50) in experiment [1] and in experiment [2] was at most 1 µM throughout.
For the compound `O=C1CN(c2c(O)ccc(-c3cc(C4(C(F)F)CC4)n[nH]3)c2F)S(=O)(=O)N1` [Compound 526, 5-(3-(3-(1-(difluoromethyl)cyclopropyl)-1H-pyrazol-5-yl)-2-fluoro-6-hydroxyphenyl)-1,2,5-thiadiazolidin-3-one 1,1-dioxide], the IC50 in experiment [1] and in experiment [2] was at most 1 µM in each case.
For `O=C1CN(c2c(O)ccc(-c3cc(-c4ccccc4)n[nH]3)c2F)S(=O)(=O)N1` [Compound 124, 5-(2-fluoro-6-hydroxy-3-(3-phenyl-1H-pyrazol-5-yl)phenyl)-1,2,5-thiadiazolidin-3-one 1,1-dioxide], the 50% inhibitory concentration (IC50) in experiment [1] and in experiment [2] was at most 1 µM in each case.
